≈ marks a conversion by molar mass, not a printed value.

Six molecules from patent US12622938B2 (priority 2020, dated 2026) can be followed below.

One data set concerns Vaccinia virus. The experiment in a line: microbe, parasite or virus in culture. The data set is classed as cell-based.
The subject of data set [1] is Flu A (H5N1) Vietnam/1203/2004H. The experiment in a line: microbe, parasite or virus in culture. The data set is classed as cell-based.
For data set [2], the system named is Flu B Malaysia/2506/2004. The experiment in a line: Flu B Malaysia/2506/2004, Neutral Red assay, MDCK. The data set is classed as cell-based. To be noted: control compound.
The test system of data set [3] is Flu B Malaysia/2506/2004. Kind of data set: Flu B Malaysia/2506/2004, Visual assay, MDCK. The data set is classed as cell-based.
Data set [4] has as its system Flu B Shanghai/361/02. The experiment in a line: Flu B Shanghai/361/02, Neutral Red assay, MDCK. To be noted: control compound, read-out: CTRL IC50. The data set is classed as cell-based.
Data set [5] concerns Flu B Shanghai/361/02. Kind of data set: Flu B Shanghai/361/02, Visual assay, MDCK. The data set is classed as cell-based.
A further data set concerns HFF cells. The note with it: human.

As to `Nc1ccn(C[C@@H](CO)OCP(=O)(O)O)c(=O)n1` [Cidofovir], the inhibition (commonly the change of the read-out against control, counted positive when it falls) at 0.56 µg/mL in the data set on Vaccinia virus (Orthopoxvirus vaccinia, HFF, 0.56 μg/mL, read-out: Viral Inhibition Rate) worked out at 11%. In addition, the inhibition at 1.67 µg/mL with Vaccinia virus (Orthopoxvirus vaccinia, HFF, 1.67 μg/mL, read-out: Viral Inhibition Rate) stood at 53%.
On to `C=C(CC[C@@H](C(=O)O)[C@H]1C[C@H](O)[C@@]2(C)C3=CC[C@H]4C(C)(C)[C@@H](O)CC[C@]4(C)C3=CC[C@]12C)C(C)C` [Dehydrosulphurenic Acid], for which the “Viral Inhibition Rate” value in the data set with Vaccinia virus (11 μg/mL) was found to be 16%; with Vaccinia virus (33 μg/mL), 58%.
Consider `C=C(CC[C@@H](C(=O)O)[C@H]1CC[C@@]2(C)C3=C(CC[C@]12C)[C@@]1(C)CC[C@H](O)C(C)(C)[C@@H]1CC3)C(C)C` [Eburicoic Acid], for which the inhibition at 11 µg/mL in the data set on Vaccinia virus (Orthopoxvirus vaccinia, HFF, 11 μg/mL, read-out: Viral Inhibition Rate) turned out to be 27%. In addition, the inhibition at 33 µg/mL in the data set on Vaccinia virus (Orthopoxvirus vaccinia, HFF, 33 μg/mL, read-out: Viral Inhibition Rate) is 29%. For the same molecule, in the data set on Vaccinia virus (Orthopoxvirus vaccinia, HFF, 100 μg/mL, read-out: Viral Inhibition Rate), the inhibition at 100 µg/mL is 55%.
In the case of `NC(=O)c1ncn([C@@H]2O[C@H](CO)[C@@H](O)[C@H]2O)n1` [Ribavirin], the “CTRL SI” value in data set [1] is over 46; with Flu B Shanghai/361/02 [5] (control compound, Flu B Shanghai/361/02, Visual) it was over 160. Also, the IC50 (usually the concentration needed to halve the response being measured) in data set [1] (Influenza A virus, H5N1, MDCK, read-out: CTRL IC50) is over 320 µg/mL; with Flu B Malaysia/2506/2004 [2] (read-out: CTRL IC50) it was over 320 µg/mL; in the data set on Flu B Malaysia/2506/2004 [3] (read-out: CTRL IC50) it was over 320 µg/mL; with Flu B Shanghai/361/02 [4] it was over 320 µg/mL; in the data set on Flu B Shanghai/361/02 [5] (read-out: CTRL IC50), over 320 µg/mL. The “CTRL EC50” value in the data set with Flu B Malaysia/2506/2004 [2] was found to be 10 µg/mL; with Flu B Malaysia/2506/2004 [3] (control compound, Flu B Malaysia/2506/2004, Visual), 3 µg/mL. In the data set with Flu B Shanghai/361/02 [5] (read-out: CTRL EC50), the EC50 – broadly, the concentration at which the effect is half-maximal – stood at 2 µg/mL (≈ 8.19 µM).
Turning to `C=C(CC[C@@H](C(=O)O)[C@H]1C[C@H](O)[C@@]2(C)C3=C(CC[C@]12C)[C@@]1(C)CC[C@H](O)C(C)(C)[C@@H]1CC3)C(C)C` [Sulphurenic acid], the “Viral Inhibition Rate” value came to 36% in the data set with Vaccinia virus (3.7 μg/mL), 51% with Vaccinia virus (11 μg/mL) and 58% in the data set with Vaccinia virus (33 μg/mL).
The molecule `CCO` [ethanol] came in with a CC50 with HFF cells of 7%.
